Values of other authors, collected in US20240100064A1, “METHODS OF TREATING NEURODEVELOPMENTAL DISORDERS” (Woolsey Pharmaceuticals, Inc., priority 2020, published 2024).
Structures can show the parent of a compound that is named as a salt.

Columns and labels:
[1] = in vivo, 1-hydroxy metabolite (Shibuya 2001)
[2] = test system: oligophrenin-1-deficient mice
[3] = oligophrenin-1-deficient mice (Allegra et al. 2017)
[4] = oligophrenin-1 deficient mice (Meziane et al. 2016)

O=S(=O)(c1cccc2c(O)nccc12)N1CCCNCC1 [M3]
half-life [1]: about 8 hours

O=S(=O)(c1cccc2cnccc12)N1CCCNCC1 [Fasudil, Hexahydro-1-(5-isoquinolinesulfonyl)-1H-1,4-diazepine monohydrochloride hemihydrate]
rescuing axon formation [2, 3]: not effective | spine density [2, 3]: restored | hippocampal hyperexcitability ([2]; oligophrenin-1 deficient mice (Busti 2020)): rescue | behavioral changes [2, 4]: reverse | brain ventricular enlargement [2, 4]: reverse
